Test results from ChEMBL document CHEMBL3600291, “Synthesis and carbonic anhydrase I, II, IX and XII inhibitory activity of sulfamates incorporating piperazinyl-ureido moieties” (Bioorg Med Chem, 2015).

Columns and labels:
Carbonic anhydrase 9 = Carbonic anhydrase 9 (Homo sapiens, UniProt Q16790); assay: Inhibition of human recombinant carbonic anhydrase-9 pre-incubated for 15 mins by stopped-flow CO2 hydration assay
Carbonic anhydrase 12 = Carbonic anhydrase 12 (Homo sapiens, UniProt O43570); assay: Inhibition of human recombinant carbonic anhydrase-12 pre-incubated for 15 mins by stopped-flow CO2 hydration assay
Carbonic anhydrase 2 = Carbonic anhydrase 2 (Homo sapiens, UniProt P00918); assay: Inhibition of human recombinant carbonic anhydrase-2 pre-incubated for 15 mins by stopped-flow CO2 hydration assay
Carbonic anhydrase 1 = Carbonic anhydrase 1 (Homo sapiens, UniProt P00915); assay: Inhibition of human recombinant carbonic anhydrase-1 pre-incubated for 15 mins by stopped-flow CO2 hydration assay
Sequence of Carbonic anhydrase 1 (P00915 whole entry): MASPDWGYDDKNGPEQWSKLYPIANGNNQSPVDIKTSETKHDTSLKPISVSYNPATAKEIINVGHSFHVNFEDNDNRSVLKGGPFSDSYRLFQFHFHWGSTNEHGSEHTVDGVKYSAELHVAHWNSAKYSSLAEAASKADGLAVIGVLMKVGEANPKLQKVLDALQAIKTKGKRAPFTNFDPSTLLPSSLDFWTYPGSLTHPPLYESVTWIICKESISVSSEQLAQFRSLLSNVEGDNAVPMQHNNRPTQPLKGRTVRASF

Sequence of Carbonic anhydrase 12 (O43570 whole entry): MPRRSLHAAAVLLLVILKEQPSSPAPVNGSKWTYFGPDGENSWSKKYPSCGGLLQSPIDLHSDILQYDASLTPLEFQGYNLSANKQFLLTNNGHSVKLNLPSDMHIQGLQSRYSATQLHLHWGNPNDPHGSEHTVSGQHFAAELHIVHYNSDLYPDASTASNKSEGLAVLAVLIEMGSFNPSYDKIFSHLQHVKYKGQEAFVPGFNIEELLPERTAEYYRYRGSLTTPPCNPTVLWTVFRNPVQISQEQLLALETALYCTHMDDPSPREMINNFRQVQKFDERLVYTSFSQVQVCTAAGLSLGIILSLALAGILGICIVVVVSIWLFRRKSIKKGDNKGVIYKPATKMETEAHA

Ki (Carbonic anhydrase 9) [nM] | Ki (Carbonic anhydrase 12) [nM] | Ki (Carbonic anhydrase 2) [nM] | Ki (Carbonic anhydrase 1) [nM] | Structure (SMILES)
10.5 | 1 | 11.7 | 317 | NS(=O)(=O)Oc1ccc(NC(=O)N2CCN(Cc3ccccc3)CC2)cc1
11.1 | 1 | 71.9 | 897 | NS(=O)(=O)Oc1ccc(NC(=O)N2CCN(c3ccccc3)CC2)cc1
61.5 | 64.7 | 18.2 | 9.4 | NS(=O)(=O)Oc1ccc(NC(=O)N2CCN(c3ccc(F)cc3)CC2)cc1
10.4 | 84.5 | 16.9 | 581 | NS(=O)(=O)Oc1ccc(NC(=O)N2CCN(c3ccc(Cl)cc3)CC2)cc1
0.91 | 35.8 | 15.9 | 851 | Cc1cccc(N2CCN(C(=O)Nc3ccc(OS(N)(=O)=O)cc3)CC2)c1
32.3 | 1 | 11.1 | 63.5 | Cc1cccc(N2CCN(C(=O)Nc3ccc(OS(N)(=O)=O)cc3)CC2)c1C
34.1 | 37 | 11.2 | 88.1 | COc1cccc(N2CCN(C(=O)Nc3ccc(OS(N)(=O)=O)cc3)CC2)c1
114 | 1.1 | 9.1 | 282 | COc1ccc(N2CCN(C(=O)Nc3ccc(OS(N)(=O)=O)cc3)CC2)cc1
114 |  |  |  | NS(=O)(=O)Oc1ccc(NC(=O)N2CCN(c3nccc(-c4ccc(Br)cc4)n3)CC2)cc1
6.7 | 1 | 1 | 70.2 | NS(=O)(=O)Oc1ccc(NC(=O)N2CCN(c3nccc(-c4cc5ccccc5o4)n3)CC2)cc1
113 |  |  | > 10000 | O=C(Nc1ccc(O)cc1)N1CCN(Cc2ccccc2)CC1
121 |  |  |  | O=C(Nc1ccc(O)cc1)N1CCN(c2ccccc2)CC1
36.9 |  |  |  | O=C(Nc1ccc(O)cc1)N1CCN(c2ccc(F)cc2)CC1
80.5 |  |  | > 10000 | O=C(Nc1ccc(O)cc1)N1CCN(c2ccc(Cl)cc2)CC1
549 |  |  |  | Cc1cccc(N2CCN(C(=O)Nc3ccc(O)cc3)CC2)c1

Structure (SMILES) | Ki (Carbonic anhydrase 9) [nM] | Ki (Carbonic anhydrase 12) [nM] | Ki (Carbonic anhydrase 2) [nM] | Ki (Carbonic anhydrase 1) [nM]
NS(=O)(=O)Oc1ccc(NC(=O)N2CCN(c3nccc(-c4ccc(C(F)(F)F)cc4)n3)CC2)cc1 | 24.3 |  |  | 
